Experimental data: patent US7579180B2, “Beta secretase polypeptides” (Amgen Inc., priority 1999, dated 2009)

Tests used:
[1] = target: T1, human beta-secretase-Fc fusion (Homo sapiens, UniProt P56817); assay: Beta-secretase activity assay: cleavage of DNP-labeled APP peptides, HPLC; type: biochemical; conditions: peptide substrate 20 μM, pH 5.0, about 6 hours, room temperature; FIG. 11
T1 construct: A plasmid containing cDNA encoding amino acids 1-460 of beta-secretase fused to the Fc portion of human IgG; made in house; host or cells: human embryonic kidney 293T cells, stably transfected; purified from conditioned medium on protein A
Protocol: FIG. 11 is a graph depicting the ability of human beta-secretase-Fc fusion to cleave various APP peptides. The X-axis is the amount of enzyme in the reaction mixture and the Y-axis is the amount of cleavage (denoted as pmol product formed) of each of three substrate peptides. “Sw” refers to the APP peptide with the Swedish mutation; “Wt” refers to wild type APP peptide; and “MV” refers to a mutated APP peptide.
Recombinant native as well as mutant beta secretase polypeptides were assayed for activity by measuring the ability of the molecule to cleave various A-beta peptides.
Each assay was conducted as follows. […] Quenched reactions were analyzed by HPLC on a 5 μm, C18 reversed-phase column (Sephasil Peptide, 4.6×100 mm; Amersham Pharmacia Biotech, Piscataway, N.J.) using first a linear gradient of 18-31.5 percent acetonitrile in 0.1 percent TFA over 40 minutes, then 31.5-81 percent acetonitrile for 1 minute, then 81 percent acetonitrile for 4 minutes, and then returning to 18-percent acetonitrile for several minutes to reequilibrate the column. […] Proteolysis of the Sw and WT octapeptides was evaluated using a linear gradient of 27-37.8 percent acetonitrile over 24 minutes on the same column.
Both product and substrate were monitored by absorbance at 360 nm. […]
The concentration of standard was determined from the extinction coefficient of DNP (e365nm=16 mM^−1cm^−1). […]

[2] = system: 293T-APPsw101 cell line; assay: Assay for the 42 amino acid form of A-beta in medium of transfected cells; type: cell-based, human; conditions: Single Clone
Protocol: (§1) A duplicate of each master cDNA 96 well plate was prepared. Each well of the duplicate plate contained about 75 microliters of Optimem I medium (Life Technologies Inc, Gaithersburg, Md.) and about 300 ng of cDNA library. About 75 microliters of a mixture of 12 microliters DMRIE-C Lipid per ml of Optimem I medium (Life Technologies Inc., Gaithersburg, Md.) was added to each well of the 96 well plate using a Multipette (Sagian Inc. Indianapolis, Ind.) robotic pipettor. The DMRIE C was allowed to complex for about 30 minutes. Meanwhile, the media was removed from a 96 well dish in which each well had been plated with about 15,000 cells/well of the 293T-APPsw 101 cell line two days before. About 125 microliters of the DNA/Lipid complex was added to each well of cells. The cells containing the DNA/lipid mixture were then incubated at 37 degrees C., 5 percent CO2 for about five hours. After incubation, 125 μl Optimem I supplemented with 20 percent FBS and 2× Penicillin/Streptomycin (0.1 unit/ml Penicillin, 0.1 μg/ml Streptomycin) (Life Technologies Inc., Gaithersburg, Md.) was added to stop the transfection. […] The medium from each well was then harvested, diluted 1:1 in Superblock (Pierce Inc., Rockford, Ill.), stamped into pre-coated ELISA plates and analyzed for the presence of A-beta as described below. […]

[3] = system: 293T-APPsw101 cell line; assay: Assay for total beta amyloid peptide in medium of transfected cells; type: cell-based, human; conditions: Single Clone; diluted 1:10 into pCMVi vector DNA; average of duplicate transfections
Protocol: as §1

T1 sequence (P56817 with tags, fused parts or gaps limits assumed): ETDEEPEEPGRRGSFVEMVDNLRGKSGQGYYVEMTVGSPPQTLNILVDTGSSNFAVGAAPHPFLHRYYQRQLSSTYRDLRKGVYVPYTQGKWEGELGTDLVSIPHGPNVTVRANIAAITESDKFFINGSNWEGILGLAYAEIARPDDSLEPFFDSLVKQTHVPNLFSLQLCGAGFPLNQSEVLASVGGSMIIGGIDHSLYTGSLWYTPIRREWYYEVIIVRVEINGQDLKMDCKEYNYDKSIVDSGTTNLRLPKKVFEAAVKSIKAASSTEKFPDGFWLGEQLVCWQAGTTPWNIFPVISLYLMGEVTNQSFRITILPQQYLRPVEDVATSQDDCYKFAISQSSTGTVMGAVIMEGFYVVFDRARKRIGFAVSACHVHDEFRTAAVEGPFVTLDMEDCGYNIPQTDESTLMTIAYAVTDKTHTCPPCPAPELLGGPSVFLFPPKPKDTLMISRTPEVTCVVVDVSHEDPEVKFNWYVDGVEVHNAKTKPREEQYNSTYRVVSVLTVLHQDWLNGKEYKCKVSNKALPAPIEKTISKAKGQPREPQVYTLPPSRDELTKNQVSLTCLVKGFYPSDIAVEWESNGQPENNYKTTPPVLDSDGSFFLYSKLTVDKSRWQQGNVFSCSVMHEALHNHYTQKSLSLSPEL

In the case of EVNLDAEF [Sw], the “cleavage of substrate peptide (pmol product formed), preference by the enzyme” value [1] is reported as “clearly preferred by the enzyme over the wild type (Wt) substrate”.
For EVKMDAEF [Wt], the “cleavage of substrate peptide (pmol product formed), preference by the enzyme” value [1] was “preferred over the methionine to valine mutant (MV) substrate”.
For “Single Clone (β-Secretase): single cDNA clone from pool A-11 encoding human beta-secretase (SEQ ID NO:1)”, the “A-beta 42/Total” value [2] was 1.1, the “A-beta 42” value ([2]; diluted 1:10 into pCMVi vector DNA, average of duplicate transfections) was 327,505 total Europium counts and the Total [3] was 295,438 total Europium counts.
